Measured values from paper PMC6017447, “Novel 6- and 7-Substituted Coumarins with Inhibitory Action against Lipoxygenase and Tumor-Associated Carbonic Anhydrase IX” (Molecules : A Journal of Synthetic Chemistry and Natural …, 2018).
pIC50, pKi: −log10 of the molar value. Where two headings read alike, the source gives them in different places.

How the values were obtained:
[1] = biological target: T1, soybean lipoxygenase (LOX) (Glycine max, UniProt P08170); assay: in vitro inhibition of soybean lipoxygenase, UV absorbance based enzyme assay; format: biochemical; details: sodium linoleate 0.1 mM, pH 9; for % LOX Inhibition at 100 Μμ / inhibition at 100 µM: 100 μM compound; for inhibition at 100 µM: read-out: % LOX Inhibition at 100 Μμ
T1 construct: purchased Sigma Chemical, Co. (St. Louis, MO, USA)
T1 sequence (P08170 1-839): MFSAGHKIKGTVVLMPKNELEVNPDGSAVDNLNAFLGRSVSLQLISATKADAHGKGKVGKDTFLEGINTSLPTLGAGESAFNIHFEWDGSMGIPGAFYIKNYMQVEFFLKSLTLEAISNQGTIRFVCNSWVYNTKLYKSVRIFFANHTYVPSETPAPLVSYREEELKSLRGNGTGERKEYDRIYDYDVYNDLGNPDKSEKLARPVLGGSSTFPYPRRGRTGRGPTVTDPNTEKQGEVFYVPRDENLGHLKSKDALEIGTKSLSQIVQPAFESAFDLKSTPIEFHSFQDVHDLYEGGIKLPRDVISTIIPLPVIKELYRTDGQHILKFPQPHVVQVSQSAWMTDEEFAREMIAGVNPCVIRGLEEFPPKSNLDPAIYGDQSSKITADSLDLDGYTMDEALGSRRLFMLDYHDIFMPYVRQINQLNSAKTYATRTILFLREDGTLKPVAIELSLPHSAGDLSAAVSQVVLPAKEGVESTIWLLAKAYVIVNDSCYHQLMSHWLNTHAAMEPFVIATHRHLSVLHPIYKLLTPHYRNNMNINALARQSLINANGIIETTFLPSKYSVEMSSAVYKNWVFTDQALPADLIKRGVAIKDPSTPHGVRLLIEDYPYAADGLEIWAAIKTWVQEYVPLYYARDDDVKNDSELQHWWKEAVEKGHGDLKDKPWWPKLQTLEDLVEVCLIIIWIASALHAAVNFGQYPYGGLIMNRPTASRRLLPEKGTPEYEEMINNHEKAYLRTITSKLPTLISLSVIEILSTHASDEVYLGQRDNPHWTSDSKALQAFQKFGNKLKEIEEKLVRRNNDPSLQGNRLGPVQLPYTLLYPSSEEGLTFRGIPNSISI
Experimental: Most of the LOX inhibitors are antioxidants or free radical scavengers. LOXs contain a non-heme iron per molecule in the enzyme active site as high-spin Fe^2+ in the native state and the high spin Fe^3+ in the activated state.
A DMSO solution of the tested compound was incubated with sodium linoleate (0.1 mM) and 0.2 mL of soybean LOX solution (1/9 × 10^−4 w/v in saline) in buffer pH 9 (tris) and at room temperature.

[2] = biological target: T1, soybean lipoxygenase (LOX); set-up: method as in doi:10.1007/s00044-017-1800-6; details: 100 μM compound; footnote d; cited from earlier work
hCA I = hCA I (Homo sapiens, UniProt P00915); assay: stopped flow CO2 hydrase assay, hCA I
Chain of hCA I (P00915 whole entry): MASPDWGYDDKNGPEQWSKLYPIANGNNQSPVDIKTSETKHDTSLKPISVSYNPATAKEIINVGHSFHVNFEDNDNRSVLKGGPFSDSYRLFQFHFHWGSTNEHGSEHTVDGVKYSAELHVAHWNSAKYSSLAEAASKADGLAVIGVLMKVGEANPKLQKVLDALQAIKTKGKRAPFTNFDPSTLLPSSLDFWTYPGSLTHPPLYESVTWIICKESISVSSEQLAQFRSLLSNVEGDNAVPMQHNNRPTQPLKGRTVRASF
Experimental: (§1) An Applied Photophysics (Oxford, UK) stopped-flow instrument has been used for assaying the CA catalysed CO2 hydration activity [36]. […] The uncatalyzed rates were determined in the same manner and subtracted from the total observed rates. Stock solutions of inhibitor (0.1 mM) were prepared in distilled-deionized water and dilutions up to 0.01 nM were done thereafter with distilled-deionized water. […] The inhibition constants were obtained by non-linear least-squares methods using PRISM 3, as reported earlier [42, 43, 44, 45, 46, 47, 48, 49, 50] and represent the mean from at least three different determinations. The four CA isoforms were recombinant proteins obtained as reported earlier in our laboratory [42, 43, 44, 45, 46, 47, 48, 49, 50].

hCA II = hCA II (Homo sapiens, UniProt P00918); assay: stopped flow CO2 hydrase assay, hCA II
Experimental: as §1

hCA IV = hCA IV (Homo sapiens, UniProt P22748); assay: stopped flow CO2 hydrase assay, hCA IV
Chain of hCA IV (P22748 19-312): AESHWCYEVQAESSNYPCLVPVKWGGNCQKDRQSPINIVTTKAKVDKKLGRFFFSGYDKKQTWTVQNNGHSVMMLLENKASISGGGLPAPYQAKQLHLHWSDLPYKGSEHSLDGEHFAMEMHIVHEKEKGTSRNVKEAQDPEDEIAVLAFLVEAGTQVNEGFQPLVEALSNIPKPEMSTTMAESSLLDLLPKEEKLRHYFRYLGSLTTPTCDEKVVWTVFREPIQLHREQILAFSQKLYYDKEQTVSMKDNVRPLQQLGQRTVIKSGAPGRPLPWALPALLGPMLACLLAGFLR
Experimental: as §1

hCA IX = hCA IX (Homo sapiens, UniProt Q16790); assay: stopped flow CO2 hydrase assay, hCA IX
Experimental: as §1

Row | % LOX Inhibition at 100 Μμ [1] | inhibition at 100 µM [1] | melting point | pKi (hCA I) | pKi (hCA II) | pKi (hCA IV) | pKi (hCA IX) | pIC50 [1] | Compound | % LOX Inhibition at 100 Μμ [2]
1 | 37% |  |  |  |  |  |  |  | 2-((2-Oxo-2H-chromen-6-yl)oxy)-N-(pyridin-4-ylmethyl)acetamide [Compound 11b] | 
2 | 77% |  |  |  |  |  |  |  | 2-((2-Oxo-2H-chromen-7-yl)oxy)-N-(pyridin-4-ylmethyl)acetamide [Compound 11a] | 
3 |  | 40% |  |  |  |  |  |  | O=c1ccc2cc(O)ccc2o1 [Compound 1b, 6-hydroxycoumarin] | 
4 |  |  | 112.9 to 113 °C | < 5.00 | < 5.00 | 5.25 | 6.61 |  | CCOC(=O)COc1ccc2ccc(=O)oc2c1 [Compound 2a, Ethyl 2-((2-oxo-2H-chromen-7-yl)oxy)acetate] | 16%
5 |  |  | 120 to 122 °C | < 5.00 | < 5.00 | < 5.00 | 5.69 |  | CCOC(=O)COc1ccc2oc(=O)ccc2c1 [Compound 2b, Ethyl 2-((2-oxo-2H-chromen-6-yl)oxy)acetate] | 41%
6 |  |  |  | < 5.00 | < 5.00 | 5.07 | 6.54 |  | O=C(O)COc1ccc2ccc(=O)oc2c1 [Compound 3a, 2-((2-Oxo-2H-chromen-7-yl)oxy)acetic acid] | 50%
7 |  |  |  | < 5.00 | < 5.00 | < 5.00 | 6.71 |  | O=C(O)COc1ccc2oc(=O)ccc2c1 [Compound 3b, 2-((2-Oxo-2H-chromen-6-yl)oxy)acetic acid] | 50%
8 |  | 96% | 178 to 179 °C | < 5.00 | < 5.00 | < 5.00 | 6.78 | 5.00 | O=C(COc1ccc2ccc(=O)oc2c1)NCCc1ccccc1 [Compound 4a, 2-((2-Oxo-2H-chromen-7-yl)oxy)-N-phenethylacetamide] | 
9 |  | 85% | 150 to 151 °C | < 5.00 | < 5.00 | < 5.00 | 7.52 | 5.00 | O=C(COc1ccc2oc(=O)ccc2c1)NCCc1ccccc1 [Compound 4b, 2-((2-Oxo-2H-chromen-6-yl)oxy)-N-phenethylacetamide] | 
10 |  | 45% | 167 to 168 °C | < 5.00 | < 5.00 | < 5.00 | 7.08 |  | O=C(COc1ccc2ccc(=O)oc2c1)NCc1ccccc1 [Compound 5a, N-Benzyl-2-((2-oxo-2H-chromen-7-yl)oxy)acetamide] | 
11 |  | 42% | 161 to 162 °C | < 5.00 | < 5.00 | < 5.00 | 7.52 |  | O=C(COc1ccc2oc(=O)ccc2c1)NCc1ccccc1 [Compound 5b, N-Benzyl-2-((2-oxo-2H-chromen-6-yl)oxy)acetamide] | 
12 |  | 63% | 160 to 161 °C | < 5.00 | < 5.00 | < 5.00 | 5.60 | 4.33 | O=C(COc1ccc2ccc(=O)oc2c1)NCc1ccc(F)cc1 [Compound 6a, N-(4-Fluorobenzyl)-2-((2-oxo-2H-chromen-7-yl)oxy)acetamide] | 
13 |  | 26% | 158 to 159 °C | < 5.00 | < 5.00 | < 5.00 | 5.56 |  | O=C(COc1ccc2oc(=O)ccc2c1)NCc1ccc(F)cc1 [Compound 6b, N-(4-Fluorobenzyl)-2-((2-oxo-2H-chromen-6-yl)oxy)acetamide] | 
14 |  | 50% | 182 to 183 °C | < 5.00 | < 5.00 | < 5.00 | 6.70 | 4.00 | O=C(COc1ccc2ccc(=O)oc2c1)Nc1ccccc1 [Compound 7a, 2-((2-Oxo-2H-chromen-7-yl)oxy)-N-phenylacetamide] | 
15 |  | 45% | 182 to 183 °C | < 5.00 | < 5.00 | 5.58 | 6.69 |  | O=C(COc1ccc2oc(=O)ccc2c1)Nc1ccccc1 [Compound 7b, 2-((2-Oxo-2H-chromen-6-yl)oxy)-N-phenylacetamide] | 
16 |  | 43% | 208 to 209 °C | < 5.00 | < 5.00 | 6.46 | 6.87 |  | O=C(COc1ccc2ccc(=O)oc2c1)Nc1ccc(F)cc1 [Compound 8a, N-(4-Fluorophenyl)-2-((2-oxo-2H-chromen-7-yl)oxy)acetamide] | 
17 |  | 11% | 206 to 207 °C | < 5.00 | < 5.00 | 6.07 | 6.84 |  | O=C(COc1ccc2oc(=O)ccc2c1)Nc1ccc(F)cc1 [Compound 8b, N-(4-Fluorophenyl)-2-((2-oxo-2H-chromen-6-yl)oxy)acetamide] | 
18 |  | 33% | 213 to 214 °C | < 5.00 | < 5.00 | < 5.00 | 5.56 |  | COC(=O)c1ccccc1NC(=O)COc1ccc2ccc(=O)oc2c1 [Compound 9a, Methyl 2-(2-((2-oxo-2H-chromen-7-yl)oxy)acetamido)benzoate] | 
19 |  | 50% | 213 to 214 °C | < 5.00 | < 5.00 | < 5.00 | 5.69 | 4.00 | COC(=O)c1ccccc1NC(=O)COc1ccc2oc(=O)ccc2c1 [Compound 9b, Methyl 2-(2-((2-oxo-2H-chromen-6-yl)oxy)acetamido)benzoate] | 
20 |  | 79% | 138 to 139 °C | < 5.00 | < 5.00 | < 5.00 | 5.62 | 4.82 | O=C(COc1ccc2ccc(=O)oc2c1)NCCc1ccccn1 [Compound 10a, 2-((2-Oxo-2H-chromen-7-yl)oxy)-N-(2-(pyridin-2-yl)ethyl)acetamide] | 
21 |  | 40% | 141 to 142 °C | < 5.00 | < 5.00 | < 5.00 | 5.67 |  | O=C(COc1ccc2oc(=O)ccc2c1)NCCc1ccccn1 [Compound 10b, 2-((2-Oxo-2H-chromen-6-yl)oxy)-N-(2-(pyridin-2-yl)ethyl)acetamide] | 
22 |  | 56% | 148 to 149 °C | < 5.00 | < 5.00 | < 5.00 | < 5.00 | 4.37 | O=C(COc1ccc2ccc(=O)oc2c1)NCCN1CCOCC1 [Compound 12a, N-(2-Morpholinoethyl)-2-((2-oxo-2H-chromen-7-yl)oxy)acetamide] | 
23 |  | 64% | 149 to 150 °C | < 5.00 | < 5.00 | < 5.00 | < 5.00 | 4.78 | O=C(COc1ccc2oc(=O)ccc2c1)NCCN1CCOCC1 [Compound 12b, N-(2-Morpholinoethyl)-2-((2-oxo-2H-chromen-6-yl)oxy)acetamide] | 
24 |  | 50% | 116 to 117 °C | < 5.00 | < 5.00 | < 5.00 | 5.71 | 4.00 | O=C(COc1ccc2ccc(=O)oc2c1)NCCN1CCCCC1 [Compound 13a, 2-((2-Oxo-2H-chromen-7-yl)oxy)-N-(2-(piperidin-1-yl)ethyl)acetamide] | 
25 |  | 37.6% | 115 to 116 °C | < 5.00 | < 5.00 | < 5.00 | 6.56 |  | O=C(COc1ccc2oc(=O)ccc2c1)NCCN1CCCCC1 [Compound 13b, 2-((2-Oxo-2H-chromen-6-yl)oxy)-N-(2-(piperidin-1-yl)ethyl)acetamide] | 
